Literature values in patent US10646532B2, “Method for preparing water extract of ashwagandha leaves which has enhanced anti-cancer activity utilizing cyclodextrin, and pharmaceutical composition containing ashwagandha leaves” (National Institute of Advanced Industrial Science and …, priority 2014, dated 2020).

Tested on: cancer cells / normal cells
Details: in vitro test, background art

SMILES: CC1=C(C)C(=O)OC([C@@H](C)C2(O)CC[C@H]3[C@@H]4[C@@H]5O[C@@H]5C5(O)CC=CC(=O)[C@]5(C)[C@H]4CC[C@@]32C)C1 (stereo partly shown) [withanone]
- cytotoxicity to cancer cells versus normal cells: selective cytotoxicity to cancer cells
